Regarding `CCCCCCCCCCCCCCCCCCNC(=O)OCC(CO)NC(=O)OC(C)(C)C` (stereo unspecified), the melting point (in general, the temperature, or range, at which the solid turns liquid) lay in the range of 73 to 75 °C.

`CCCN(CCC)Cc1nc(-c2ncn3c2[C@@H]2CCN2C(=O)c2ccccc2-3)no1`: the melting point was in the range of 208 to 210 °C.

Regarding `CCCCCc1nc(-c2ccccc2)c(CCC(=O)O)o1`, the melting point lay in the range of 80 to 81 °C.

Molecule `O=C1NC(=O)C(=Cc2ccc(OCc3cccc(Cl)c3)cc2)S1` registered a melting point of 182 to 183 °C.

`CC1(CS(=O)(=O)c2ccccc2)COC2(CCC(=O)CC2)OO1` (stereo unspecified) registered a melting point of 96 °C.

Molecule `N=C(NN)c1cccc(Cc2c[nH]cn2)c1O` showed a melting point of 188 °C.

The molecule `COc1cc(-c2cccs2)cc(OC)c1C=O` registered a melting point of 168 to 170 °C.

Molecule `CC(C)N(C(C)C)C(C)CN1C(=O)/C(=N/NC(N)=O)c2ccccc21` (stereo unspecified) yielded a melting point of 201 to 204 °C.

In turn, `Cc1cc2oc(=O)c(NC(=O)Nc3ccc(Cl)cc3)c(-c3ccccc3C)c2cc1C` yielded a melting point of 234 to 236 °C.

`COc1ccc(Cl)cc1N1C(=O)CON(C)C1=S`: the melting point fell in the range of 189 to 191 °C.

As to `Cc1ccc(Cl)cc1NC(=S)Nc1cc[nH]n1`, the melting point was in the range of 221 to 222 °C.

With `Nc1ccc(C(c2ccc(F)cc2)n2ccnc2)cc1[N+](=O)[O-]` (stereo unspecified), the melting point amounted to 147 °C.

`CC[C@@H](c1ccccc1)N(Cc1ccc(C(=O)O)cc1OC)S(=O)(=O)c1ccc(Cl)cc1`: the melting point was 176 to 178 °C.

The molecule `CCCCC(C(=O)N[C@@H](CC(=O)O)c1ccc2c(c1)OCO2)N1C(=O)N(Cc2ccccc2)C(=O)C1(C)C` (stereo partly specified) gave a melting point of 53 to 55 °C.

`NS(=O)(=O)c1ccc(N2CCN(CC[C@H]3OCCc4ccccc43)CC2)cc1`: the melting point lay within 189 to 190 °C.

`Cc1c(-c2ccccc2)sc2c1c(=O)c(C(=O)C(C)C)cn2Cc1c(F)cccc1F` displayed a melting point of 205 to 207 °C.

With `CCCCc1nc(CO)c(S(=O)(=O)CC)n1Cc1ccc(-c2ccccc2C(=O)O)cc1`, the melting point stood at 210 °C.

As to `Cc1nc(CCc2ccccc2)c2c(c1O)COC2`, the melting point came to 248 °C.

`CCn1cc(C(=O)OC)c(=O)c2cc(F)c(N3CCNCC3)cc21` yielded a melting point of 179 to 181 °C.

`CS(=O)(=O)c1ccc(-c2cnn(-c3cccc(Cl)c3)c(=O)c2Cc2ccccc2)cc1` yielded a melting point of 174 to 177 °C.

On to `COc1ccc(C(=O)Nc2ccc3ccc(Nc4ccccc4)nc3n2)cc1`, for which the melting point was determined as 245 °C.

`CCc1c(Nc2cc(C)cc(C)c2)nc(OC)nc1OC` displayed a melting point of 113 to 114 °C.

Molecule `CCCNc1nc(=O)n(C2CC(N=[N+]=[N-])C(CO)O2)cc1C` (stereo unspecified) returned a melting point of 59 to 62 °C.

With `Cc1cc(C)c(Nc2nc(C)ncc2S(=O)(=O)c2ccc(NCc3ccccc3)cc2)c(C)c1`, the melting point lay within 200 to 202 °C.

Molecule `CCCCCCCCCCc1c(C(=O)OCC)sc2c1sc1c3sc(C(=O)OCC)c(CCCCCCCCCC)c3sc21` gave a melting point of 130 to 132 °C.

In turn, `CC(C)Cn1c(C(C)O)nc2c(N)nc3ccccc3c21` (stereo unspecified) had a melting point of 145 to 149 °C.

For `FC(F)C(F)(F)Sc1nc(-c2ccccc2)c(-c2ccccc2)n1COCc1ccccc1`, the melting point lay within 70 to 70.5 °C.

In turn, `CCOC(=O)c1ccc(OCCSc2ccccc2)cc1` registered a melting point of 50 to 51 °C.

For the molecule `CC(C)(C)c1cc(CO)n(Cc2ccc(C(F)(F)F)cc2Cl)n1`, the melting point lay in the range of 115 to 117 °C.

In the case of `CC(C)n1nc(-c2cc(I)c(N)nc2-c2ccccc2)ccc1=O`, the melting point was 196 to 197 °C.

`CCCCSCC(=O)c1ccc2c(c1)n(C)c(=O)n2C` had a melting point of 80 to 81 °C.

`CC(=O)N1CCc2cc(S(=O)(=O)n3c(CCCC(=O)O)cc4cc(Cl)ccc43)ccc21` returned a melting point of 115 to 117 °C.

`CCCCCCCCCCCCCCOc1ccc(CN(C(=O)c2cccnc2)c2ccccc2)cc1` gave a melting point of 65 to 67 °C.

In turn, `CN1Cc2ccccc2C(c2ccccc2)N=C1Cc1ccc(NS(C)(=O)=O)cc1` (stereo unspecified) came in with a melting point of 182 to 185 °C.

Regarding `COCCNC(=O)c1ccc(NS(=O)(=O)c2ccc(F)cc2)cn1`, the melting point turned out to be 154 °C.

On to `CCC1c2c(ncn2C)CCN1C(=O)NC(C)C` (stereo unspecified), for which the melting point turned out to be 220 °C.

`COc1cc(C)ccc1OCCCN1CCC(C(O)(c2ccc(F)cc2)c2ccc(F)cc2)CC1`: the melting point fell in the range of 121 to 122 °C.

The molecule `CNC(=O)[C@@H]1CCCC[C@@H]1Nc1nc(Cl)ncc1Cl` (relative stereo) registered a melting point of 108 °C.

Molecule `CN1C(=O)CN=C(c2ccccc2F)c2cc(NC(=O)NCc3ccccc3)ccc21` showed a melting point of 174 to 178 °C.

The molecule `CCSc1nc(N2CCNCC2)nc2cccnc12` yielded a melting point of 98 to 101 °C.

The molecule `COP(=O)(CNC(=O)[C@H](C)NC(=O)[C@H](C)NC(=O)OCc1ccccc1)OC` showed a melting point of 106 to 108 °C.

`COc1ccc(CN2C(=O)C(C)(c3cc(C(=O)N(C)CC(F)(F)F)ccc3Cl)c3cc(Cl)ccc32)c(OC)c1` (stereo unspecified) returned a melting point of 89 °C.

In turn, `Sc1ncc(CCCCc2ccccc2)[nH]1` yielded a melting point of 168 to 169 °C.

`C=CCC1(C(C)CC(=O)O)C(=O)NC(=O)NC1=O` (stereo unspecified): the melting point was determined as 200 °C.

`C=CC(=O)NCNC(=O)CCS(=O)(=O)Cl` returned a melting point of 192 °C.

`CCOC(=O)C1(NS(=O)(=O)c2ccc3c(Cl)cnc(NC(=N)N)c3c2)CCC1` came in with a melting point of 165 to 169 °C.

Take `O=C(O)CCNC(=O)c1ccccc1SSc1ccccc1C(=O)NCCC(=O)O`: the melting point lay within 201 to 203 °C.

As to `Cc1noc(NS(=O)(=O)c2ccccc2-c2ccc(-c3ncco3)cc2CN(C)C(=O)C2CC2)c1C`, the melting point was 92 to 102 °C.

For `O=C(Nc1ccc(-n2nc(C(F)(F)F)cc2C(F)(F)F)cc1)c1c(F)cc(Cl)cc1Cl`, the melting point lay in the range of 185 to 188 °C.

`CCCCCCCCCCCCCCCCCCSCCCCCCCCCCC(N)=O` registered a melting point of 108 °C.

Consider `CSc1nc2ccc(CCc3nc4cc(C)ccn4c3C)cc2o1`, for which the melting point was 106 to 107 °C.

Molecule `CCCCCCCCCCCCNC(=O)c1cc(Br)c(OCCn2ncnn2)c(-c2cccc(C(F)(F)F)c2)c1` had a melting point of 75.6 to 76.2 °C.

In turn, `CP(=O)(O)C[C@@H](O)CN` had a melting point of 221 to 222 °C.

The molecule `CN(C)c1ccc(CNC(=O)c2ccccc2O)cc1` came in with a melting point of 129 to 132 °C.

In turn, `NS(=O)(=O)c1cc(C(=O)CCCC(=O)O)cc2c1OCC2` displayed a melting point of 207 to 209 °C.

Take `Cc1ccc(S(=O)(=O)NC(=O)C2C(=O)CC3(CCCCC3)CC2=O)cc1`: the melting point fell in the range of 150 to 152 °C.

Consider `COc1ccc(S(=O)CC(C)=O)cc1` (single isomer, unassigned; (-)), for which the melting point is 56 to 58 °C.

The molecule `CCc1nc2cccc(C(=O)OC)c2n1Cc1ccc(-c2ccccc2-c2nc(=O)s[nH]2)cc1` yielded a melting point of 203 to 205 °C.

Regarding `Cc1cc(CC(=O)O)n(C)c1C(=O)c1ccc(Cl)cc1Cl`, the melting point was in the range of 140 to 143 °C.

In the case of `Cc1oc(-c2ccccc2)nc1CCOc1ccc(C[C@@H](C(=O)O)N2CCN(S(=O)(=O)c3ccccc3[N+](=O)[O-])CC2)cc1`, the melting point is 171 to 173 °C.

As to `Nc1c(NC(=O)CC23CCCN2CCC3)cnc2ccccc12`, the melting point lay in the range of 205 to 209 °C.

In turn, `CCc1nnc2c(NC3CCCC3)nc3ccccc3n12` showed a melting point of 166 to 168 °C.

Molecule `CS(=O)(=O)c1cccc(NC(=O)c2cnn3c(C(F)(F)F)cc(-c4ccc(C(F)(F)F)c(F)c4)nc23)c1` came in with a melting point of 246 °C.

For the molecule `O=S(=O)(c1ccccc1)n1c2ccc(C=Cc3ccccc3)cc2c2c(Cl)ccnc21`, the melting point was in the range of 216 to 218 °C.

The molecule `COc1cccc(CSc2ncccc2C(=O)O)c1` registered a melting point of 156 to 157 °C.

For `CCOCC1(C)CCCSc2cc(C#Cc3ccc(C(=O)O)cc3)ccc21` (stereo unspecified), the melting point lay in the range of 154 to 155 °C.

In turn, `CS(=O)(=O)NC(=O)COc1ccc(CCCS(=O)(=O)c2ccc(Cl)cc2)cc1NC(=O)c1cccc(OCc2nc3ccccc3s2)c1` came in with a melting point of 153 °C.

`COC(=O)c1cccc2cc(C)sc12` showed a melting point of 48 to 49 °C.

Take `Cc1cc2c(cc1O)C(C)(C)CC1(CC(C)(C)c3cc(OCCCn4nc(CO)cc4C)c(C)cc3O1)O2` (stereo unspecified): the melting point was 217 to 219 °C.

As to `COCc1c(-c2ccc(O)cc2)oc2ccccc2c1=O`, the melting point was 237 to 239 °C.

Regarding `CCCCn1nc(SCc2ccc(OC)cc2)c(C(=O)O)c1Cc1cc2c(cc1Cl)OCO2`, the melting point worked out at 181 °C.

As for `Cc1c(OCC(=O)O)ccc(-c2noc3ccccc23)c1C`, the melting point was 146 to 152 °C.

`O=c1ccc(S(=O)(=O)n2ccc3ccccc32)n[nH]1` showed a melting point of 169 to 170 °C.

Molecule `Cc1ccnc(O)c1C#N` returned a melting point of 230 to 232 °C.

In turn, `CC#CCOc1ccc(S(=O)(=O)N(Cc2cccnc2)C2(C(=O)NO)CCCCC2)cc1` came in with a melting point of 179 to 181 °C.

Regarding `O=C(COCc1cccs1)C12CC3CC(CC(C3)C1)C2`, the melting point lay in the range of 57.2 to 58.3 °C.

The molecule `CCCc1nc2c(N)nc3cc(OCCCn4cccc4)ccc3c2s1` displayed a melting point of 152 to 154 °C.

`CCCCOc1nc(N)c2[nH]c(=O)n(CCCNc3cccc(CC(=O)O)c3)c2n1` registered a melting point of 247 °C.

`CCCCCC(C)C(C)c1cc(O)c2c3c(c(=O)oc2c1)CSC3` (stereo unspecified) gave a melting point of 165 to 166 °C.

`COC(=O)c1oc(C(C)(C)C)cc1NC(=O)Nc1ccc(C)cc1` had a melting point of 78 to 79 °C.

Turning to `C=C1C=C(Oc2cc(C(=O)Nc3c(Cl)cncc3Cl)ccc2OC)C1(F)F`, the melting point was 102 to 104 °C.

As to `CCn1cc(C(=O)O)c(=O)c2cc(OC)c(C3CCCCC3)cc21`, the melting point was 176 to 178 °C.

For the molecule `C#CCn1ncc(-c2ccc(S(C)(=O)=O)cc2)c(-c2ccc(F)cc2)c1=O`, the melting point fell in the range of 196 to 198 °C.

`O=C1Nc2cc(C(F)(F)F)ccc2N2CCN(CCc3ccccn3)CC12` (stereo unspecified) registered a melting point of 194 to 196 °C.

`COP(=O)(OC)[C@H](C)NC(=O)[C@H](C)NC(=O)[C@H](C)NC(=O)CNC(=O)OCc1ccccc1`: the melting point lay in the range of 162 to 164 °C.

`Cn1ccc(Nc2ccc([N+](=O)[O-])cc2[N+](=O)[O-])n1` displayed a melting point of 150 °C.

The values above are taken from a melting point compilation (Tetko et al.; mined from patent text by program, amines drawn as free bases though some values may be those of a salt).
